Measured values published in PMC4403932 (Journal of Medicinal Chemistry, 2015).
Read-outs that look alike come from different tables or passages of the source.

Legend:
Format in all cases: binding
BRD9 [1] = target: T1, BRD9 (Homo sapiens, UniProt Q9H8M2); assay: Protein stability (thermal) shift assay, BRD9; conditions: compound 10 μM, protein 2 μM; average of triplicate; read-out: ΔTm Shift, BRD9
T1 construct: made in house
T1 sequence (Q9H8M2 136-240 limits assumed): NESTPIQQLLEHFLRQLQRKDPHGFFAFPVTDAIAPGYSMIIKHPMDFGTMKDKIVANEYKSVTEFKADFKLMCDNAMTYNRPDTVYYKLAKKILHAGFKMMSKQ
Experimental: (§1) Thermal melting experiments were carried out using an Mx3005p real time PCR machine (Stratagene). Proteins were buffered in 10 mM HEPES, pH 7.5, 500 mM NaCl and assayed in a 96-well plate at a final concentration of 2 μM in 20 μL volume. Compounds were added at a final concentration of 10 or 100 μM. SYPRO Orange (Molecular Probes) was added as a fluorescence probe at a dilution of 1 in 1000. Excitation and emission filters for the SYPRO-Orange dye were set to 465 and 590 nm, respectively. The temperature was raised with a step of 3 °C per minute from 25 to 96 °C, and fluorescence readings were taken at each interval. The temperature dependence of the fluorescence during the protein denaturation process was approximated by the equation [drawing 1] where ΔuG is the difference in unfolding free energy between the folded and unfolded state, R is the gas constant, and yF and yU are the fluorescence intensity of the probe in the presence of completely folded and unfolded protein, respectively.[65] The baselines of the denatured and native states were approximated by a linear fit. The observed temperature shifts, ΔTm^obs, were recorded as the difference between the transition midpoints of sample and reference wells containing protein without ligand in the same plate and determined by nonlinear least-squares fit. Temperature shifts (ΔTm^obs) for three independent measurements per proteins/compound are summarized in Supporting Information Table S1.

BRD4(1) = target: T2, BRD4(1) (Homo sapiens, UniProt O60885); assay: Protein stability (thermal) shift assay, BRD4(1); conditions: compound 10 μM, protein 2 μM; average of triplicate; read-out: ΔTm Shift, BRD4(1)
T2 construct: made in house
Experimental: as §1

BRD2(1) = target: T3, BRD2(1) (Homo sapiens, UniProt P25440); assay: Protein stability (thermal) shift assay, BRD2(1); conditions: compound 10 μM, protein 2 μM; average of triplicate
T3 construct: Fragments were tested in a thermal shift assay against bromodomains of the BET subfamily; made in house
T3 sequence (P25440 74-180 limits assumed): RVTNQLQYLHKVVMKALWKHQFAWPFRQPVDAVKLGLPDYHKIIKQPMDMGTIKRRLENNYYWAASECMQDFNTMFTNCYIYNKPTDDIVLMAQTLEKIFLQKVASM
Experimental: as §1

PCAF = target: T4, PCAF (Homo sapiens, UniProt Q92831); assay: Protein stability (thermal) shift assay, PCAF; conditions: compound 10 μM, protein 2 μM; average of triplicate
T4 construct: representative BRDs from other structural subfamilies (family I, PCAF); made in house
T4 sequence (Q92831 723-827 limits assumed): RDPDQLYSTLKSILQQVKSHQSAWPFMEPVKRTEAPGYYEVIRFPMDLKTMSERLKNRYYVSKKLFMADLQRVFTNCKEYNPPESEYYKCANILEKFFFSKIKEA
Experimental: as §1

CREBBP = target: T5, CREBBP (Homo sapiens, UniProt Q92793); assay: Protein stability (thermal) shift assay, CREBBP
T5 construct: small thermal shits (1.0–1.3 °C) for the bromodomain of CREBBP; made in house
T5 sequence (Q92793 1085-1192 limits assumed): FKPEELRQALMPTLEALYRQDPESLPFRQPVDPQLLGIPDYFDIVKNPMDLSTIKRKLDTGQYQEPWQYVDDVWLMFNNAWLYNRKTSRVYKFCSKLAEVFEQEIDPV
Experimental: as §1

BRDT(2) = target: T6, BRDT(2) (Homo sapiens, UniProt Q58F21); assay: Protein stability (thermal) shift assay, BRDT(2)
T6 construct: made in house
Experimental: as §1

PB1(5) = target: T7, PB1(5) (Homo sapiens, UniProt Q86U86); assay: Protein stability (thermal) shift assay, PB1(5); conditions: compound 10 μM, protein 2 μM; average of triplicate
T7 construct: made in house
T7 sequence (Q86U86 653-763 limits assumed): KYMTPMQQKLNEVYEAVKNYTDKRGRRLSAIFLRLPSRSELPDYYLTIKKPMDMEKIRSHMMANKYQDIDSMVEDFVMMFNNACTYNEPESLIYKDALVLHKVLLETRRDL
Experimental: as §1

BRD2(2) = target: T8, BRD2(2) (Homo sapiens, UniProt P25440); assay: Protein stability (thermal) shift assay, BRD2(2); conditions: compound 10 μM, protein 2 μM; average of triplicate
T8 construct: made in house
T8 sequence (P25440 344-453 limits assumed): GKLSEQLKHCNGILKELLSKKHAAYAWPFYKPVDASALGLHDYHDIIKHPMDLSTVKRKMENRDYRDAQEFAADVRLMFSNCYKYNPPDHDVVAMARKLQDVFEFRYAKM
Experimental: as §1

BRD3(1) = target: T9, BRD3(1) (Homo sapiens, UniProt Q15059); assay: Protein stability (thermal) shift assay, BRD3(1); conditions: compound 10 μM, protein 2 μM; average of triplicate
T9 construct: Fragments were tested in a thermal shift assay against bromodomains of the BET subfamily; made in house
T9 sequence (Q15059 34-140 limits assumed): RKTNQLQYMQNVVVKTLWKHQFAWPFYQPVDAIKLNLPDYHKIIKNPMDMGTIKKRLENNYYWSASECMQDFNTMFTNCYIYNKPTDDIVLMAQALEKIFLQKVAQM
Experimental: as §1

BRD3(2) = target: T10, BRD3(2) (Homo sapiens, UniProt Q15059); assay: Protein stability (thermal) shift assay, BRD3(2); conditions: compound 10 μM, protein 2 μM; average of triplicate
T10 construct: made in house
T10 sequence (Q15059 306-415 limits assumed): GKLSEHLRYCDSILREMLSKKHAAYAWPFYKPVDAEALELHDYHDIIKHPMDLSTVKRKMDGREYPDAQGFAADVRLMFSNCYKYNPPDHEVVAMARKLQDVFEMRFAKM
Experimental: as §1

BRD4(2) = target: T11, BRD4(2) (Homo sapiens, UniProt O60885); assay: Protein stability (thermal) shift assay, BRD4(2); conditions: compound 10 μM, protein 2 μM; average of triplicate
T11 construct: made in house
Experimental: as §1

BRDT(1) = target: T12, BRDT(1) (Homo sapiens, UniProt Q58F21); assay: Protein stability (thermal) shift assay, BRDT(1); conditions: compound 10 μM, protein 2 μM; average of triplicate
T12 construct: made in house
Experimental: as §1

BAZ2B = target: T13, BAZ2B (Homo sapiens, UniProt Q9UIF8); assay: Protein stability (thermal) shift assay, BAZ2B; conditions: compound 10 μM, protein 2 μM; average of triplicate; read-out: ΔTm Shift, BAZ2BA
T13 construct: representative BRDs from other structural subfamilies (family I, PCAF); family III, CREBBP; family IV, BRD9; family V, BAZ2B; made in house
T13 sequence (Q9UIF8 2060-2164 limits assumed): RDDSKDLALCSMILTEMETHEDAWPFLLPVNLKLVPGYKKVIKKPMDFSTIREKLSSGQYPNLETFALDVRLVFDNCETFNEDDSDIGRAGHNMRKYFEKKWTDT
Experimental: as §1

[2] = tested on: human bromodomains (panel); assay: Protein stability (thermal) shift assay, whole panel of human bromodomains; conditions: 10 μM compound
Experimental: as §1

BRD9 [3] = target: T1, BRD9; assay: Isothermal titration calorimetry, BRD9; conditions: ITC, 50 mM HEPES pH 7.5, 150 mM NaCl, 15 °C, reverse titration, triplicate
Experimental: Experiments were carried out on an ITC200 titration microcalorimeter from MicroCal, LLC (GE Healthcare) equipped with a Washing module, with a cell volume of 0.2003 mL, and a 40 μL microsyringe. Experiments were carried out at 15 °C while stirring at 1000 rpm, in ITC buffer (50 mM HEPES, pH 7.5 (at 25 °C), 150 mM NaCl). The microsyringe was loaded with a solution of the protein sample (300−740 μM protein for BRD9 and BRD4(1), respectively, in ITC buffer) and was carefully inserted into the calorimetric cell which was filled with an amount of the ligand (0.2 mL, 20–25 μM in ITC buffer). The system was first allowed to equilibrate until the cell temperature reached 15 °C, and an additional delay of 60 s was applied. All titrations were conducted using an initial control injection of 0.3 μL followed by 38 identical injections of 1 μL with a duration of 2 s (per injection) and a spacing of 120 s between injections. The titration experiments were designed in such a fashion as to ensure complete saturation of the proteins before the final injection. The heat of dilution for the proteins was independent of their concentration and corresponded to the heat observed from the last injection, following saturation of ligand binding, thus facilitating the estimation of the baseline of each titration from the last injection. The collected data were corrected for protein heats of dilution (measured on separate experiments by titrating the proteins into ITC buffer) and deconvoluted using the MicroCal Origin software supplied with the instrument to yield enthalpies of binding (ΔH) and binding constants (KB) in the same fashion as that previously described in detail by Wiseman and co-workers.[66] Thermodynamic parameters were calculated using the basic equation of thermodynamics (ΔG = ΔH – TΔS = −RT ln KB, where ΔG, ΔH, and ΔS are the changes in free energy, enthalpy, and entropy of binding, respectively). In all cases a single binding site model was employed, supplied with the MicroCal Origin software package.

[4] = compound 10 μM, protein 2 μM, average of triplicate, read-out: ΔTm Shift, CREBBP
[5] = compound 10 μM, protein 2 μM, average of triplicate, read-out: ΔTm Shift, BRDT(2)
[6] = thermal shift, 10 μM compound, 2 μM protein, read-out: ΔTm

Row | SMILES | ΔTm at 10 µM (BRD9 [1]) [°C] | ΔTm at 10 µM (BRD4(1)) [°C] | ΔTm at 10 µM (BRD2(1)) [°C] | ΔTm at 10 µM (PCAF) [°C] | ΔTm at 10 µM (CREBBP; [4]) [°C] | ΔTm at 10 µM (BRDT(2); [5]) [°C] | ΔTm at 10 µM (PB1(5)) [°C] | ΔTm at 10 µM (BRD2(2)) [°C] | ΔTm at 10 µM (BRD3(1)) [°C] | ΔTm at 10 µM (BRD3(2)) [°C] | ΔTm at 10 µM (BRD4(2)) [°C] | ΔTm at 10 µM (BRDT(1)) [°C] | ΔTm at 10 µM (BAZ2B) [°C] | binding to the bromodomain panel in the ΔTm assay (in words) [2] | ΔTm at 10 µM (CREBBP; [6]) [°C] | ΔTm at 10 µM (BRDT(2); [6]) [°C] | KD (BRD9 [3])
1 | Cn1cnc2c(-c3ccc(Oc4ccccc4)cc3)nc(N)nc21 [Compound 3e, 2-Amino-6-(4-phenoxyphenyl)-9-methylpurine] | 0.257 | 1 | 0.32 | 1 | 1.3 | 1.2 | 0.8 | 0.463 | 0.743 | 0.8 | 0.8 | 0.6 | 0.6 | very weak or no binding |  |  | 
2 | CCCCOc1cc(Br)cc(-c2nc(N)nc3c2ncn3C)c1 [Compound 5b, 2-Amino-6-(3-bromo-5-butoxyphenyl)-9-methylpurine] | -0.56 | 0.633 | -0.153 | 0.9 | 1.3 | 1 | 0.5 | 0.163 | 0.227 | 0.5 | 0.373 | 0.45 | 0.217 | very weak or no binding |  |  | no binding/weak
3 | COc1ccc(Br)cc1-c1nc(N)nc2c1ncn2CC(C)=O [Compound 8c, 2-Amino-6-(5-bromo-2-methoxyphenyl)-9-(2-oxopropyl)-purine] | -0.109 | 0.24 | 0.0207 | -0.6 | -0.07 | 0.571 | 0.243 | 0.0227 | 0.275 | 0.535 | -0.431 | 0.151 | -0.06 | could not be tolerated |  |  | 
4 | COc1ccc(F)cc1-c1nc(O)nc2[nH]cnc12 [Compound 8d, 6-(5-Fluoro-2-methoxyphenyl)-2-hydroxy-9H-purine] | -0.8 | 0.9 | 1 | 0.535 | 0.34 | 0.368 | 0.564 | 0.5 | 0.9 | 0.187 | 0.7 | 0.9 | 0.277 | lost affinity across the panel |  |  | 
5 | COc1ccc(F)cc1-c1ncnc2[nH]c(C)nc12 [Compound 9b, 6-(5-Fluoro-2-methoxyphenyl)-8-methyl-9H-purine] | 0.8 | 0.0286 | 0.0729 | -1.5 | 0.259 |  | 0.0705 | 0.9 | 0.2 | 0.341 | 0.148 | 0.2 | 0.2 | very low affinity for all bromodomains |  | 2.9 | 

More lines, main results first:

Row | ΔTm at 10 µM (BRD9 [1]) [°C] | ΔTm at 10 µM (BRD4(1)) [°C] | ΔTm at 10 µM (BRD2(1)) [°C] | ΔTm at 10 µM (PCAF) [°C] | ΔTm at 10 µM (CREBBP; [4]) [°C] | ΔTm at 10 µM (BRDT(2); [5]) [°C] | ΔTm at 10 µM (PB1(5)) [°C] | ΔTm at 10 µM (BRD2(2)) [°C] | ΔTm at 10 µM (BRD3(1)) [°C] | ΔTm at 10 µM (BRD3(2)) [°C] | ΔTm at 10 µM (BRD4(2)) [°C] | ΔTm at 10 µM (BRDT(1)) [°C] | ΔTm at 10 µM (BAZ2B) [°C] | binding to the bromodomain panel in the ΔTm assay (in words) [2] | ΔTm at 10 µM (CREBBP; [6]) [°C] | ΔTm at 10 µM (BRDT(2); [6]) [°C] | SMILES | KD (BRD9 [3])
6 | -0.32 | -0.7 | -1 | -1.1 | 1.1 | -2.5 | -0.0233 | -0.5 | -1 | -0.7 | -3.8 | -0.7 | -1.3 | very weak or no binding |  |  | COc1ccc(-c2nc(N)nc3c2ncn3C)cc1 [Compound 3c, 2-Amino-6-(4-methoxyphenyl)-9-methylpurine] | 
7 |  | 0.177 | -0.15 | 0.143 | 0.9 | -0.163 | 0.5 | 0.6 | -0.0167 | 0.223 | 0.2 | 0.273 | 0.6 | very weak or no binding | 1 to 1.3 |  | Cn1cnc2c(-c3cccc(OCc4ccc(Cl)cc4)c3)nc(N)nc21 [Compound 4e, 2-Amino-6-(3-(4′-chlorobenzyloxy)phenyl)-9-methylpurine] | 
8 |  | 0.323 | 0.163 | 0.9 | 0.74 | 0.0167 | 0.7 | 0.6 | 0.147 | 0.467 | 0.337 | 0.4 | 0.6 | completely abolished bromodomain binding |  |  | COc1ccc(Br)cc1-c1nc(N)nc2c1ncn2C [Compound 8b, 2-Amino-6-(5-bromo-2-methoxyphenyl)-9-methylpurine] | no binding/weak
9 | -0.66 | 1.2 | 1 | 0.378 | 0.6 | 1 | 0.8 | 0.5 | 0.55 | 0.853 | 0.7 | 0.653 | 0.563 | lost affinity across the panel |  |  | COc1ccc(Br)cc1-c1nc(O)nc2[nH]cnc12 [Compound 8f, 6-(5-Bromo-2-methoxyphenyl)-2-hydroxy-9H-purine] | 
